Common to all, as to format: physicochemical
A short description of data set [1]: Fluidity test: angle of repose measurement. The method, then: (1) Angle of Repose Measurement
An iron stand configured to measure the angle of repose is placed in a horizontal position, a funnel is fixed on the iron stand, and a plastic receiving container is placed directly under the funnel. The crystal form I is added to the funnel to make the material flow down slowly from the funnel to form a cone shape. The height of the bottom of the funnel and the top of the flowed-down material is maintained at a height of about 2-4 cm. The measurement is repeated 5 times to calculate the average value.

Data set [2] can be described thus: Two-week solid-state stability determination (XRPD and HPLC). Particulars: 2 weeks; for Purity after storage: HPLC, initial purity 99.72%; for Stability of crystalline shape: XRPD. From the text: […] Samples are taken after 2 weeks to test the stability of the samples by XRPD and HPLC.
A short description of data set [3]: Fluidity test: bulk density and tap density determination. The method, then:
(2) Bulk Density and Tap Density Determination
The crystal form I is added to a measuring cylinder, and the weight and volume of the material added are calculated. A densitometer is used to tap and record the volume of the material after tapping.

Data set [4] can be described thus: Moisture absorption determination according to the Pharmacopoeia. The method, then: In this embodiment, the moisture absorption of crystal form I is investigated according to the Pharmacopoeia, and the details are as follows: • (1) 2 dry glass weighing bottles with stoppers (outer diameter of 50 mm, height of 30 mm) are taken and placed in a desiccator where a saturated solution of ammonium chloride is placed in a lower part. The weighing bottles are placed with open lips, the lid of the desiccator is closed, and the desiccator is placed in a constant temperature room at 25° C. and left overnight. • (2) after left overnight, the weighing bottles are taken out and accurately weighted, results of which are m1 1 and m1 2 respectively. • (3) an appropriate amount of the API sample is taken and laid flat in a weighed weighing bottle (the thickness of the sample is about 1 mm), and accurately weighted, results of which are m2 1 and m2 2 respectively. • (4) the weighing bottles are placed with open lips and placed with the bottle caps in the desiccator with the saturated solution of ammonium chloride in the lower part, the lid of the desiccator is closed, and the desiccator is placed in a thermostat at 25° C. for 24 hours. • (5) after leaving for 24 hours, the weighing bottles are capped and accurately weighted, results of which are m3 1 and m3 2 respectively. • (6) the calculation formula for moisture absorption weight gain is as follows: Weight gain percentage=100%×(m3−m2)/(m2−m1)

Several values for one entry are separate records, joined by “and”; a condition that tells them apart may be missing. Equal values may be shown once. Entries after “also recorded” stand apart in the source; their conditions may differ.

These results are taken from patent US12540112B2, “Crystal form I of curcumin derivative, preparation method therefor and application thereof” (WENZHOU MEDICAL UNIVERSITY, priority 2019, dated 2026).

As for `O=C1/C(=C/c2ccccc2C(F)(F)F)CCC/C1=C\c1ccccc1C(F)(F)F` [crystal form I], the “angle of repose, Average value” in data set [1] (average of 5 repeated measurements) turned out to be 41.80 °. The fluidity result in data set [1] (judgement in words) is reported as “good fluidity; also recorded: acceptable”. Moreover, in data set [1] (single measurements 1 to 5, funnel method), the angle of repose was 41.30° and 40.86° and 42.93° and 41.87° and 42.02°. Moreover, the Purity after storage in data set [2] (25° C./60% RH/60% RH) is recorded as 99.70%; in data set [2] (25° C./92.5% RH), 99.72%; in data set [2] (40° C./75% RH) it was 99.70%; in data set [2] (60° C./75% RH), 99.68%. Besides, the “Stability of crystalline shape” value in data set [2] (25° C./60% RH/60% RH), in data set [2] (25° C./92.5% RH), in data set [2] (40° C./75% RH) and in data set [2] (60° C./75% RH) was “YES” in each case. Further, in data set [2] (all storage conditions), the “change of purity on storage” value is “does not change significantly”. Moreover, the “stability of crystal form” value in data set [2] (all storage conditions) is “remains stable”. In data set [3] ((tap density − bulk density)/tap density × 100), this molecule yielded a Carr index of 21.60. In addition, the “ρ (bulk density)” value in data set [3] (M 29.85 g, V 44.0 mL) is 0.678 g/mL. In addition, the “ρ-tapped (tap density)” value in data set [3] (M 29.85 g, V-tapped 34.5 mL) was 0.865 g/mL. In addition, the “fluidity (from Carr index)” value in data set [3] (judgement in words) is on record as “good fluidity”. For the same molecule, in data set [4] (25° C., saturated ammonium chloride solution desiccator, 24 hours, average of 2), the “Weight gain percentage, Average value” amounted to 0.16%. The “Weight gain percentage (moisture absorption)” value in data set [4] (25° C., saturated ammonium chloride solution desiccator, 24 hours, listed as C66-HC-006-13-06) is 0.17% and 0.15%. The moisture absorption result in data set [4] (judgement in words) is recorded as “no or almost no moisture absorption”.
